In the NIST ThermoML archive (doi:10.1021/je0602824):
Numbers after ± are expanded uncertainties. Blank lines part the entries; values can stand above or below the molecule they belong to.

Tests used:
[1] = 101 kPa, Liquid
[2] = xn = mol fraction of the nth substance listed; settings: 101 kPa, Liquid, x1 = 1

SMILES: CCOS(=O)(=O)[O-].CCn1cc[n+](C)c1 [1-ethyl-3-methylimidazolium ethyl sulfate]
mass density ([1]; 278.15 K): 1251.12 ± 3.3 kg/m3 | viscosity ([1]; 278.15 K): 308 ± 46 mPa·s | mass density ([1]; 288.15 K): 1244.13 ± 3.3 kg/m3 | viscosity ([1]; 288.15 K): 166 ± 17 mPa·s | mass density ([1]; 298.15 K): 1237.37 ± 3.2 kg/m3 | viscosity ([1]; 298.15 K): 95 ± 6 mPa·s | mass density ([1]; 308.15 K): 1230.61 ± 3.2 kg/m3 | viscosity ([1]; 308.15 K): 62 ± 4 mPa·s | mass density ([1]; 318.15 K): 1223.9 ± 3.1 kg/m3 | viscosity ([1]; 318.15 K): 41 ± 2 mPa·s | mass density ([1]; 328.15 K): 1217.23 ± 3 kg/m3 | viscosity ([1]; 328.15 K): 30 ± 2 mPa·s | mass density ([1]; 338.15 K): 1210.6 ± 3 kg/m3 | viscosity ([1]; 338.15 K): 21 ± 2 mPa·s | mass density ([1]; 348.15 K): 1204.01 ± 2.9 kg/m3 | viscosity ([1]; 348.15 K): 17 ± 2 mPa·s

SMILES: CCn1cc[n+](C)c1.O=C([O-])C(F)(F)F [1-ethyl-3-methylimidazolium trifluoroacetate]
mass density ([1]; 278.15 K): 1306.89 ± 12 kg/m3 | viscosity ([1]; 278.15 K): 78 ± 6 mPa·s | mass density ([1]; 288.15 K): 1298.81 ± 11 kg/m3 | viscosity ([1]; 288.15 K): 48 ± 3 mPa·s | mass density ([1]; 298.15 K): 1290.8 ± 11 kg/m3 | viscosity ([1]; 298.15 K): 32 ± 2 mPa·s | mass density ([1]; 308.15 K): 1282.85 ± 11 kg/m3 | viscosity ([1]; 308.15 K): 23 ± 2 mPa·s | mass density ([1]; 318.15 K): 1274.95 ± 11 kg/m3 | viscosity ([1]; 318.15 K): 17 ± 2 mPa·s | mass density ([1]; 328.15 K): 1267.12 ± 11 kg/m3 | viscosity ([1]; 328.15 K): 13 ± 2 mPa·s | mass density ([1]; 338.15 K): 1259.35 ± 11 kg/m3 | viscosity ([1]; 338.15 K): 10 ± 2 mPa·s | mass density ([1]; 348.15 K): 1251.63 ± 10 kg/m3 | viscosity ([1]; 348.15 K): 9 ± 2 mPa·s

SMILES: CCn1cc[n+](C)c1.O=S(=O)([O-])C(F)(F)F [1-ethyl-3-methylimidazolium trifluoromethanesulfonate]
mass density ([1]; 278.15 K): 1400.52 ± 14 kg/m3 | viscosity ([1]; 278.15 K): 96 ± 7 mPa·s | mass density ([1]; 288.15 K): 1392.04 ± 13 kg/m3 | viscosity ([1]; 288.15 K): 61 ± 4 mPa·s | mass density ([1]; 298.15 K): 1383.6 ± 13 kg/m3 | viscosity ([1]; 298.15 K): 41 ± 2 mPa·s | mass density ([1]; 308.15 K): 1375.22 ± 13 kg/m3 | viscosity ([1]; 308.15 K): 29 ± 2 mPa·s | mass density ([1]; 318.15 K): 1366.9 ± 13 kg/m3 | viscosity ([1]; 318.15 K): 21 ± 2 mPa·s | mass density ([1]; 328.15 K): 1358.63 ± 13 kg/m3 | viscosity ([1]; 328.15 K): 16 ± 2 mPa·s | mass density ([1]; 338.15 K): 1350.43 ± 12 kg/m3 | viscosity ([1]; 338.15 K): 13 ± 2 mPa·s | mass density ([1]; 348.15 K): 1342.3 ± 12 kg/m3 | viscosity ([1]; 348.15 K): 11 ± 2 mPa·s

Now from value to molecule:

mass density ([2]; 278.15 K): 999.99 ± 0.54 kg/m3 | mass density ([2]; 308.15 K): 994.06 ± 0.58 kg/m3 | mass density ([2]; 328.15 K): 985.71 ± 0.63 kg/m3 | mass density ([2]; 338.15 K): 980.56 ± 0.67 kg/m3 | mass density ([2]; 348.15 K): 974.84 ± 0.7 kg/m3
SMILES: O [water] + CCn1cc[n+](C)c1.O=S(=O)([O-])C(F)(F)F

mass density ([2]; 278.15 K): 999.99 ± 0.54 kg/m3 | mass density ([2]; 308.15 K): 994.06 ± 0.58 kg/m3 | mass density ([2]; 328.15 K): 985.71 ± 0.63 kg/m3 | mass density ([2]; 338.15 K): 980.56 ± 0.67 kg/m3 | mass density ([2]; 348.15 K): 974.84 ± 0.7 kg/m3
SMILES: O [water] + CCn1cc[n+](C)c1.O=C([O-])C(F)(F)F

mass density ([2]; 278.15 K): 999.99 ± 0.54 kg/m3 | mass density ([2]; 308.15 K): 994.06 ± 0.58 kg/m3 | mass density ([2]; 328.15 K): 985.71 ± 0.63 kg/m3 | mass density ([2]; 338.15 K): 980.56 ± 0.67 kg/m3 | mass density ([2]; 348.15 K): 974.84 ± 0.7 kg/m3
SMILES: O [water] + CCOS(=O)(=O)[O-].CCn1cc[n+](C)c1
